Here are results for one compound from patent US7423054B2, “Therapeutic pyrazolo[3,4-b]pyridines and indazoles” (Warner Lambert Company LLC, priority 2004, dated 2008).

Experiment [1] deals with capsaicin-induced mechanical allodynia. Description: Rat model of capsaicin-induced mechanical allodynia (paw withdrawal threshold, Von Frey). As to conditions: Rattus norvegicus, po, 2 h, male Sprague-Dawley rats, oral single dose 10 mg/kg, contralateral PWT at 2 hours after dose, mean of eight animals; read-out: % inhibition +/− SEM. Type of experiment: in vivo. The procedure: In certain embodiments, the compounds of formula I may be assayed for their ability to alleviate capsaicin-induced mechanical allodynia in a rat (e.g., Sluka, K A, (2002) J of Neuroscience, 22(13): 5687-5693). For example, a rat model of capsaicin-induced mechanical allodynia) can be carried out as follows:
On day 0, male Sprague-Dawley rats (˜150 g) in the dark cycle are placed in suspended wire-bottom cages and allowed to acclimate for 0.5 h in a darkened, quiet room. The day 0 paw withdrawal threshold (PWT) is determined on the left hind paw by Von Frey hair assessment using the Dixon up and down method. After assessment, the plantar muscle of the right hind paw is injected with 100 μl capsaicin (0.25% in 10% ethanol, 10% Tween 80, in sterile saline). On day 6 the PWT of the left hindpaw (contralateral from injection site) is determined for each animal. Animals from the day 6 prereads with PWT≦11.7 g are considered allodynic responders and are regrouped so that each cage had similar mean PWT values. On day 7, responders are dosed (e.g., orally, intraperitoneally, and subcutaneously, etc.) with 10 ml/kg vehicle (0.5% HPMC(hydroxy-propylmethylcellulose)/0.2% Tween™ 80), or vehicle plus compound. The contralateral PWT values are determined at 2 hours (or at about the time corresponding to the estimated Cmax) after the single dose, with the investigator blinded to the dosing scheme. Those of skill in the art can determine the appropriate time to determine the contralateral PWT value (e.g., 1 hour, 2 hours, etc.).
For each animal, the day 6 PWT value is subtracted from the 2 hour PWT value to give a delta PWT value that represents the change in PWT due to the 2 hour drug treatment. In addition, the day 6 PWT is subtracted from the day 0 PWT to give the baseline window of allodynia present in each animal. To determine % inhibition of allodynia of each animal normalized for vehicle controls, the following formula is used: % Inhibition of Allodynia=100×(Delta PWT(drug)−mean Delta PWT(vehicle))/(Baseline−mean Delta PWT(vehicle)). Pharmaceutically Acceptable Salts and Solvates
Compounds of the present invention may be assayed for their ability to alleviate capsaicin-induced mechanical allodynia in a rat model (e.g., Sluka (2002) J of Neuroscience, 22(13)5687-5693). For example, a rat model of capsaicin-induced mechanical allodynia was carried out as follows:
On day 0, male Sprague-Dawley rats (˜150 g) in the dark cycle were placed in suspended wire-bottom cages and allowed to acclimate for 0.5 hour in a darkened, quiet room. The day 0 paw withdrawal threshold (PWT) was determined on the left hind paw by Von Frey hair assessment using the Dixon up and down method. After assessment, the plantar muscle of the right hind paw was injected with 100 μl capsaicin (0.25% (w/v) in 10% ethanol, 10% Tween 80, in sterile saline). On day 6 the PWT of the left hindpaw (contralateral from injection site) was determined for each animal. Animals from the day 6 prereads with PWT≦11.7 g were considered allodynic responders and were regrouped so that each cage had similar mean PWT values.
On day 7, responders were dosed subcutaneously with 30 mg of the compound of Example 7/kg body weight, 10 mg of the compound of the compound of Example 48/kg body weight, or with vehicle alone. The vehicle was phosphate buffered saline containing 2% Cremophor®) EL (BASF).
For the animals dosed with the compound of Example 7, the contralateral PWT values were determined at 2 hour after the single dose, with the investigator blinded to the dosing scheme.
For each animal, the day 6 PWT value was subtracted from the 2 hour PWT value for the 10 mg/kg doses to give a delta PWT value that represents the change in PWT due to the […] drug treatment. In addition, the day 6 PWT was subtracted from the day 0 PWT to give the baseline window of allodynia present in each animal. […]

Experiment [2] addresses T1, human norepinephrine transporter (hNET) (Homo sapiens, UniProt P23975).
T1 construct: expressed in transfected cells; host or cells: HEK-293 cells (membrane preparation)
Description: hNET receptor binding ([125I]-RTI-55 displacement, membranes of transfected HEK-293 cells). As to conditions: HEK-293 membranes, Ki from IC50 by Cheng-Prusoff, read-out: NET Ki. A digest of the protocol:
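Membranes from HEK-293 cells expressing human NET were incubated 90 min at room temperature with 50 pM [125I]-RTI-55 and compound (10^−5 to 10^−12 M) in Krebs-HEPES buffer, pH 7.4. Bound radioligand was counted after filtration, with nonspecific binding defined by 10 μM desipramine. IC50 was converted to Ki by Cheng-Prusoff.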

For experiment [3], the target named is T2, human serotonin transporter (hSERT) (Homo sapiens, UniProt P31645).
T2 construct: expressed in transfected cells; host or cells: HEK-293 cells (membrane preparation)
Description: hSERT receptor binding ([125I]-RTI-55 displacement, membranes of transfected HEK-293 cells). Particulars: HEK-293 membranes, Ki from IC50 by Cheng-Prusoff, read-out: SERT Ki. A digest of the protocol:
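Membranes from HEK-293 cells expressing human SERT were incubated 90 min at room temperature in Krebs-HEPES (pH 7.4) with 50 pM [125I]-RTI-55 and compound (10^-12 to 10^-5 M), in duplicate. Nonspecific binding was defined with 10 μM citalopram. Ki from IC50 by Cheng-Prusoff.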

Counter-ions that a name gives are not always drawn.

T1 sequence (P23975 whole entry): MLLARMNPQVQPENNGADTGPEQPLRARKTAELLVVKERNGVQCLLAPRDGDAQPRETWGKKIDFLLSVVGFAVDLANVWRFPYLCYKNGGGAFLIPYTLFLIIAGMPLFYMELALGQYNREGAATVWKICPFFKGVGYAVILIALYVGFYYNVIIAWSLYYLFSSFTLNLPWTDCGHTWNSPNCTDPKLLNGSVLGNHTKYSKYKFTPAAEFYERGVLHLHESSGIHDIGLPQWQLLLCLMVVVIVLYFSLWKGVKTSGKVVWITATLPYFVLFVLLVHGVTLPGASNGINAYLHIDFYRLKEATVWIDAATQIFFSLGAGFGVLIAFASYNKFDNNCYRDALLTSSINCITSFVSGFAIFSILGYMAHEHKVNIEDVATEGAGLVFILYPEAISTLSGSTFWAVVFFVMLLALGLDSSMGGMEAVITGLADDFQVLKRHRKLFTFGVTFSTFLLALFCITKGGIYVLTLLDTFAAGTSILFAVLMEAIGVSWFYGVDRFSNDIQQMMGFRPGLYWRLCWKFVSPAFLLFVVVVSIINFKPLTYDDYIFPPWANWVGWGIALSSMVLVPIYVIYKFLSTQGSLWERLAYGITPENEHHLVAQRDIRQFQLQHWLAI
T2 sequence (P31645 whole entry): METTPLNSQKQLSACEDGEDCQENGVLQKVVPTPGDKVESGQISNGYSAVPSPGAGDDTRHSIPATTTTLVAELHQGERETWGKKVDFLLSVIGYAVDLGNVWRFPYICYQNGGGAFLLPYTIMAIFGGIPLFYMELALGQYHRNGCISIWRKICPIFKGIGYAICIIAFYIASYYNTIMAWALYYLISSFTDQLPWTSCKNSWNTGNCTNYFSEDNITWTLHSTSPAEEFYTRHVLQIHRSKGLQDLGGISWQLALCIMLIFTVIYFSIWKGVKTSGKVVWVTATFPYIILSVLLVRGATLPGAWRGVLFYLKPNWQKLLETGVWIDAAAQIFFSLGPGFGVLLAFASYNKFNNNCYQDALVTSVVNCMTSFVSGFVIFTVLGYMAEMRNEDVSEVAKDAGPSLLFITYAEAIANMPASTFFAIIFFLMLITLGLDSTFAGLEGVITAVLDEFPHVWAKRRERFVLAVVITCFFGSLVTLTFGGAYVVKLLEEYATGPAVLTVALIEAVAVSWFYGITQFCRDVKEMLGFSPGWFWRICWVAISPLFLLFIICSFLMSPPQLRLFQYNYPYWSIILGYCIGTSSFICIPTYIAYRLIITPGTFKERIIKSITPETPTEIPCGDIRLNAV

As usually defined, the Ki is a dissociation constant, usually derived from enzyme kinetics or from competition with a known ligand. On to `Fc1ccccc1-n1nc(OC2CCNCC2)c2c(F)cccc21` [Example 100, 4-Fluoro-1-(2-fluoro-phenyl)-3-(piperidin-4-yloxy)-1H-indazole hydrochloride], for which the inhibition in vivo at 10 mg/kg in experiment [1] came out at 8.7%. In addition, the inhibition constant (Ki) amounted to 0.00463 µM in experiment [2] and 0.102 µM in experiment [3].
